Measured values taken from patent publication US10597390B2, “Indoles for use in influenza virus infection” (Janssen Sciences Ireland UC, priority 2014, dated 2020).

Assays:
[1] = tested on: influenza virus A/Taiwan/1/86 (H1N1); assay: organism not typed; type: cell-based; details: MDCK, 72 h, CPE in MDCK cells, three days post-virus exposure, ATPlite
[2] = in vitro; details: dog, TOX MDCK CC50

## Cc1cc(F)c2[nH]cc(-c3nc(N[C@@H]4CCC[C@@H](NC(=O)c5ccccn5)C4)c(F)cc3C#N)c2c1 (racemic) [Compound 22, N-((cis)-3-((5-cyano-3-fluoro-6-(7-fluoro-5-methyl-1H-indol-3-yl)-pyridin-2-yl)amino)cyclohexyl)picolinamide]
[1]
  IC50: 12 nM
other
  melting point: 98 °C
[2]
  CC50 at 3 days: > 25000 nM

## NC(=O)c1cc(F)c(N[C@@H]2CCC[C@H](NC(=O)N3CCCC3)C2)nc1-c1c[nH]c2c(F)cc(F)cc12 (racemic) [Compound 23]
[1]
  IC50: 140 nM
other
  melting point: 249.2 °C
[2]
  CC50 at 3 days: > 25000 nM

## Cc1cc(C(=O)N[C@@H]2CCC[C@H](Nc3nc(-c4c[nH]c5c(F)cc(Cl)cc45)ncc3F)C2)on1 (racemic) [Compound 29]
[1]
  IC50: 17 nM
other
  melting point: 246.7 °C
[2]
  CC50 at 3 days: 3400 nM

## Cc1cc(F)c2[nH]cc(-c3ncc(F)c(NC(CC(=O)O)C(C)(C)C)n3)c2c1 (racemic) [Compound 167]
[1]
  IC50: 30 nM
other
  melting point: 182 °C
[2]
  CC50 at 3 days: 3500 nM

## Cc1cc(F)c2[nH]cc(-c3nc(N[C@@H]4CCC[C@@H](NC(=O)c5ncoc5C)C4)c(F)cc3C#N)c2c1 (racemic) [Compound 192]
[1]
  IC50: 11 nM
other
  melting point: > 250 °C
[2]
  CC50 at 3 days: > 25000 nM

## Cc1cc(F)c2[nH]cc(-c3ncc(F)c(N[C@H]4CCC[C@@H](NC(=O)c5ncsc5C)C4)n3)c2c1 (racemic) [Compound 193]
[1]
  IC50: 5 nM
other
  melting point: 234 °C
[2]
  CC50 at 3 days: 3600 nM

## Cc1cc(F)c2[nH]cc(-c3ncc(F)c(N[C@@H]4CCC[C@@H](NC(=O)c5ncoc5C)C4)n3)c2c1 (racemic) [Compound 194]
[1]
  IC50: 17 nM
other
  melting point: 140 °C
[2]
  CC50 at 3 days: 11200 nM

## Cc1cc(F)c2[nH]cc(-c3nc(N[C@H]4CCC[C@@H](NC(=O)c5cn(C)cn5)C4)c(F)cc3C#N)c2c1 (racemic) [Compound 195]
[1]
  IC50: 20 nM
other
  melting point: > 250 °C
[2]
  CC50 at 3 days: 6600 nM

## Cc1cc(F)c2[nH]cc(-c3ncc(F)c(N[C@@H]4CCC[C@@H](NC(=O)c5cn(C)cn5)C4)n3)c2c1 (racemic) [Compound 196]
[1]
  IC50: 21 nM
other
  melting point: > 250 °C
[2]
  CC50 at 3 days: 10300 nM

## Cc1cc(F)c2[nH]cc(-c3ncc(F)c(N[C@@H]4CCC[C@@H](NC(=O)c5cncn5C)C4)n3)c2c1 (racemic) [Compound 198]
[1]
  IC50: 40 nM
other
  melting point: 98 °C
[2]
  CC50 at 3 days: 9700 nM

## Cc1cc(F)c2[nH]cc(-c3ncc(F)c(N[C@@H]4CCC[C@@H](NC(=O)c5nc(C)oc5C)C4)n3)c2c1 (racemic) [Compound 199]
[1]
  IC50: 46 nM
other
  melting point: 170 °C
[2]
  CC50 at 3 days: 13000 nM

## Cc1cc(F)c2[nH]cc(-c3nc(N[C@@H]4CCC[C@@H](NC(=O)c5nc(C)oc5C)C4)c(F)cc3C#N)c2c1 (racemic) [Compound 200]
[1]
  IC50: 160 nM
other
  melting point: > 250 °C
[2]
  CC50 at 3 days: > 25000 nM

## Cc1cc(F)c2[nH]cc(-c3nc(N[C@@H]4CCC[C@@H](NC(=O)c5cncs5)C4)c(F)cc3C#N)c2c1 (racemic) [Compound 201]
[1]
  IC50: 10 nM
other
  melting point: > 250 °C
[2]
  CC50 at 3 days: > 21800 nM

## Cn1ccc(C(=O)N[C@@H]2CCC[C@@H](Nc3nc(-c4c[nH]c5c(F)cc(F)cc45)c(C#N)cc3F)C2)n1 (racemic) [Compound 205]
[1]
  IC50: 4 nM
other
  melting point: 103 °C
[2]
  CC50 at 3 days: > 25000 nM

## N#Cc1cc(F)c(N[C@H]2CCC[C@@H](NC(=O)c3ncccc3F)C2)nc1-c1c[nH]c2c(F)cc(F)cc12 (racemic) [Compound 212]
[1]
  IC50: 10 nM
other
  melting point: 289 °C
[2]
  CC50 at 3 days: > 25000 nM

## CS(=O)(=O)NCc1cc(F)c(N[C@@H]2CCC[C@H](NC(=O)N3CCCC3)C2)nc1-c1c[nH]c2c(F)cc(F)cc12 (racemic) [Compound 250, N-((cis)-3-((6-(5,7-difluoro-1H-indol-3-yl)-3-fluoro-5-(methylsulfonamidomethyl)pyridin-2-yl)amino)cyclohexyl)pyrrolidine-1-carboxamide]
[1]
  IC50: 780 nM
other
  melting point: 252.1 °C
[2]
  CC50 at 3 days: > 25000 nM

## CC(=O)NCc1ccc(N[C@H]2CCC[C@@H](NC(=O)N3CCCC3)C2)nc1-c1c[nH]c2c(F)cc(F)cc12 (racemic) [Compound 260, N-((cis)-3-((5-(acetamidomethyl)-6-(5,7-difluoro-1H-indol-3-yl)pyridin-2-yl)amino)-cyclohexyl)pyrrolidine-1-carboxamide]
[1]
  IC50: 610 nM
other
  melting point: 235.8 °C
[2]
  CC50 at 3 days: > 25000 nM

## Cn1cnc(C(=O)N[C@@H]2CCC[C@H](Nc3nc(-c4c[nH]c5c(F)cc(C(F)(F)F)cc45)ncc3F)C2)c1 (racemic) [Compound 264]
[1]
  IC50: 19 nM
other
  melting point: 266.5 °C
[2]
  CC50 at 3 days: 3800 nM

## Cc1cnc(C(=O)N[C@@H]2CCC[C@H](Nc3nc(-c4c[nH]c5c(F)cc(Cl)cc45)ncc3F)C2)cn1 (relative stereo) [Compound 11, N-((1R*,3S*)-3-((2-(5-chloro-7-fluoro-1H-indol-3-yl)-5-fluoropyrimidin-4-yl)amino)cyclohexyl)-5-methylpyrazine-2-carboxamide]
[1]
  IC50: 40 nM
other
  melting point: 251.5 °C
[2]
  CC50 at 3 days: 9000 nM

## O=C(O)c1ccccc1C(=O)N[C@@H]1CCC[C@H](Nc2nc(-c3c[nH]c4c(F)cc(F)cc34)ncc2F)C1 (relative stereo) [Compound 224, 2-(((1R*,3S*)-3-((2-(5,7-difluoro-1H-indol-3-yl)-5-fluoropyrimidin-4-yl)amino)cyclohexyl)carbamoyl)benzoic Acid]
[1]
  IC50: 160 nM
other
  melting point: 201.5 °C
[2]
  CC50 at 3 days: > 5000 nM

## CC[C@@]1(C(=O)O)CCCC[C@H]1Nc1nc(-c2c[nH]c3c(F)cc(F)cc23)c(C#N)cc1F (relative stereo) [Compound 247, (trans)-2-((5-cyano-6-(5,7-difluoro-1H-indol-3-yl)-3-fluoropyridin-2-yl)-amino)-1-ethylcyclohexanecarboxylic Acid]
[1]
  IC50: 50 nM
other
  melting point: 254.9 °C
[2]
  CC50 at 3 days: 400 nM

## COc1cccc(C(=O)N[C@@H]2CCC[C@H](Nc3nc(-c4c[nH]c5c(F)cc(Cl)cc45)ncc3F)C2)n1 [Compound 31]
[1]
  IC50: 47 nM
other
  melting point: 256.7 °C
[2]
  CC50 at 3 days: 19900 nM

## Cc1cccnc1C(=O)N[C@@H]1CCC[C@H](Nc2nc(-c3c[nH]c4c(F)cc(Cl)cc34)ncc2F)C1 [Compound 32]
[1]
  IC50: 9 nM
other
  melting point: 226.5 °C
[2]
  CC50 at 3 days: > 22000 nM

## O=C(N[C@@H]1CCC[C@H](Nc2nc(-c3c[nH]c4c(F)cc(Cl)cc34)ncc2F)C1)c1cnccn1 [Compound 33]
[1]
  IC50: 7 nM
other
  melting point: 249.9 °C
[2]
  CC50 at 3 days: 13800 nM

## O=C(N[C@@H]1CCC[C@H](Nc2nc(-c3c[nH]c4c(F)cc(Cl)cc34)ncc2F)C1)c1ncccc1O [Compound 34]
[1]
  IC50: 8 nM
other
  melting point: 242.2 °C
[2]
  CC50 at 3 days: 8700 nM

## O=C(N[C@@H]1CCC[C@H](Nc2nc(-c3c[nH]c4c(F)cc(Cl)cc34)ncc2F)C1)c1cccc(O)n1 [Compound 35]
[1]
  IC50: 3 nM
other
  melting point: 253.4 °C
[2]
  CC50 at 3 days: > 19400 nM

## Cc1cc(C(=O)N[C@@H]2CCC[C@H](Nc3nc(-c4c[nH]c5c(F)cc(Cl)cc45)ncc3F)C2)nn1C [Compound 36]
[1]
  IC50: 10 nM
other
  melting point: 178.2 °C
[2]
  CC50 at 3 days: 5500 nM

## O=C(N[C@@H]1CCC[C@H](Nc2nc(-c3c[nH]c4c(F)cc(Cl)cc34)ncc2F)C1)c1ccsc1 [Compound 37]
[1]
  IC50: 1 nM
other
  melting point: > 300 °C
[2]
  CC50 at 3 days: 2400 nM

## Nc1cccc(C(=O)N[C@@H]2CCC[C@H](Nc3nc(-c4c[nH]c5c(F)cc(Cl)cc45)ncc3F)C2)n1 [Compound 38]
[1]
  IC50: 3 nM
other
  melting point: 268.4 °C
[2]
  CC50 at 3 days: 2700 nM

## Cc1cc(C(=O)N[C@@H]2CCC[C@H](Nc3nc(-c4c[nH]c5c(F)cc(Cl)cc45)ncc3F)C2)n(C)n1 [Compound 41]
[1]
  IC50: 10 nM
other
  melting point: 281.2 °C
[2]
  CC50 at 3 days: 6000 nM

## O=C(N[C@@H]1CCC[C@H](Nc2nc(-c3c[nH]c4c(F)cc(Cl)cc34)ncc2F)C1)c1cnn[nH]1 [Compound 42]
[1]
  IC50: 0.5 nM
other
  melting point: 280.1 °C
[2]
  CC50 at 3 days: 3100 nM

## Cc1cc(C(=O)N[C@@H]2CCC[C@H](Nc3nc(-c4c[nH]c5c(F)cc(Cl)cc45)ncc3F)C2)n[nH]1 [Compound 43]
[1]
  IC50: 4 nM
other
  melting point: 189.2 °C
[2]
  CC50 at 3 days: 2700 nM

## Cc1ncn(C)c1C(=O)N[C@@H]1CCC[C@H](Nc2nc(-c3c[nH]c4c(F)cc(Cl)cc34)ncc2F)C1 [Compound 45]
[1]
  IC50: 33 nM
other
  melting point: > 300 °C
[2]
  CC50 at 3 days: > 25000 nM

## O=C(N[C@@H]1CCC[C@H](Nc2nc(-c3c[nH]c4c(F)cc(Cl)cc34)ncc2F)C1)c1ncccn1 [Compound 46]
[1]
  IC50: 5 nM
other
  melting point: 286.8 °C
[2]
  CC50 at 3 days: 4800 nM

## Cc1scnc1C(=O)N[C@@H]1CCC[C@H](Nc2nc(-c3c[nH]c4c(F)cc(Cl)cc34)ncc2F)C1 [Compound 47]
[1]
  IC50: 3 nM
other
  melting point: > 300 °C
[2]
  CC50 at 3 days: 7400 nM

## Cc1ocnc1C(=O)N[C@@H]1CCC[C@H](Nc2nc(-c3c[nH]c4c(F)cc(Cl)cc34)ncc2F)C1 [Compound 48]
[1]
  IC50: 4 nM
other
  melting point: 253.4 °C
[2]
  CC50 at 3 days: 5000 nM

## Cn1nncc1C(=O)N[C@@H]1CCC[C@H](Nc2nc(-c3c[nH]c4c(F)cc(Cl)cc34)ncc2F)C1 [Compound 49]
[1]
  IC50: 9 nM
other
  melting point: 249.6 °C
[2]
  CC50 at 3 days: > 25000 nM

## Cc1nc(C(=O)N[C@@H]2CCC[C@H](Nc3nc(-c4c[nH]c5c(F)cc(Cl)cc45)ncc3F)C2)no1 [Compound 50]
[1]
  IC50: 24 nM
other
  melting point: 276.7 °C
[2]
  CC50 at 3 days: > 25000 nM

## O=C(N[C@@H]1CCC[C@H](Nc2nc(-c3c[nH]c4c(F)cc(Cl)cc34)ncc2F)C1)c1cc[nH]n1 [Compound 51]
[1]
  IC50: 1 nM
other
  melting point: 263.3 °C
[2]
  CC50 at 3 days: 2800 nM
